PubChem BioAssay AID210 (DTP/NCI, 2004)
Several values for one entry are separate records, joined by “and”; a condition that tells them apart may be missing. Equal values may be shown once. Toxic doses and inconclusive results are not listed.

System: CD2F1 mice, ip Colon 26 adenocarcinoma, median survival T/C
Experiment: NCI In Vivo Anticancer Drug Screen. Data for tumor model Colon 26 Adenocarcinoma (intraperitoneal) in CD2F1 (CDF1) mice
Settings: endpoint: median survival time, higher = longer survival
Experimental: The antitumor activity of compounds was measured in mice bearing transplantable tumors. Survival or tumor size were measured and the results are expressed as the measurement made in the treated group (T) divided by the measurement made in the vehicle treated control group (C). The tumor model used in this assay is Colon 26 Adenocarcinoma (intraperitoneal) in CD2F1 (CDF1) mice

[1] = dose: 12.5 mg/kg/injection, schedule: Q04DX003 (ip), vehicle: saline
[2] = dose: 50.0 mg/kg/injection, schedule: Q04DX003 (ip), vehicle: saline
[3] = dose: 100.0 mg/kg/injection, schedule: Q04DX003 (ip), vehicle: saline

## O=C(O)c1ccc(C(=O)O)c(C(=O)O)c1.[NH-]C1CCCCC1[NH-].[Pt+2]
dose: 2.0 mg/kg/injection, schedule: Q01DX004 (ip), vehicle: sodium bicarbonate
  T/C: 106 % of control
dose: 3.12 mg/kg/injection, schedule: Q04DX003 (ip), vehicle: sodium bicarbonate
  T/C: 114 % of control
dose: 4.0 mg/kg/injection, schedule: Q01DX004 (ip), vehicle: sodium bicarbonate
  T/C: 101 % of control
dose: 6.25 mg/kg/injection, schedule: Q04DX003 (ip), vehicle: sodium bicarbonate
  T/C: 111 % of control
dose: 8.0 mg/kg/injection, schedule: Q01DX004 (ip), vehicle: sodium bicarbonate
  T/C: 105 % of control
dose: 8.8 mg/kg/injection, schedule: Q01DX001 (ip), vehicle: saline
  T/C: 150 % of control
dose: 8.8 mg/kg/injection, schedule: Q01DX001 (iv), vehicle: saline
  T/C: 96 % of control
dose: 9.1 mg/kg/injection, schedule: Q04DX004 (iv), vehicle: sodium bicarbonate
  T/C: 105 % of control
dose: 12.5 mg/kg/injection, schedule: Q04DX003 (ip), vehicle: sodium bicarbonate
  T/C: 167 % of control
dose: 13.2 mg/kg/injection, schedule: Q01DX001 (iv), vehicle: saline
  T/C: 87 % of control
dose: 13.5 mg/kg/injection, schedule: Q04DX004 (iv), vehicle: sodium bicarbonate
  T/C: 104 % of control
dose: 19.8 mg/kg/injection, schedule: Q01DX001 (ip), vehicle: saline
  T/C: 92 % of control
dose: 20.0 mg/kg/injection, schedule: Q04DX004 (iv), vehicle: sodium bicarbonate
  T/C: 114 % of control
dose: 25.0 mg/kg/injection, schedule: Q04DX003 (ip), vehicle: sodium bicarbonate
  T/C: 167 % of control
dose: 29.6 mg/kg/injection, schedule: Q01DX001 (ip), vehicle: saline
  T/C: 96 % of control
dose: 35.0 mg/kg/injection, schedule: Q04DX002 (ip), vehicle: sodium bicarbonate
  T/C: 103 % of control
dose: 44.4 mg/kg/injection, schedule: Q01DX001 (iv), vehicle: saline
  T/C: 121 % of control
dose: 50.0 mg/kg/injection, schedule: Q04DX003 (ip), vehicle: sodium bicarbonate
  T/C: 159 % of control
dose: 100.0 mg/kg/injection, schedule: Q04DX003 (ip), vehicle: sodium bicarbonate
  T/C: 101 % of control

## CCN(CC)CCNc1ccc(C)c2sc3ccccc3c(=O)c12
dose: 25.0 mg/kg/injection, schedule: Q04DX002 (ip), vehicle: suspension in saline
  T/C: 102 % of control
dose: 50.0 mg/kg/injection, schedule: Q04DX002 (ip), vehicle: suspension in saline
  T/C: 105 % of control
dose: 100.0 mg/kg/injection, schedule: Q04DX002 (ip), vehicle: suspension in saline
  T/C: 103 % of control
dose: 200.0 mg/kg/injection, schedule: Q04DX002 (ip), vehicle: suspension in saline
  T/C: 119 % of control

## CCNCCNc1ccc(NCCNCC)c2c1C(=O)c1ccccc1C2=O
dose: 2.0 mg/kg/injection, schedule: Q01DX009 (ip), vehicle: acid diluted with saline
  T/C: 179 % of control
dose: 4.0 mg/kg/injection, schedule: Q01DX009 (ip), vehicle: acid diluted with saline
  T/C: 189 % of control
dose: 8.0 mg/kg/injection, schedule: Q01DX009 (ip), vehicle: acid diluted with saline
  T/C: 163 % of control and 166 % of control
dose: 16.0 mg/kg/injection, schedule: Q01DX009 (ip), vehicle: acid diluted with saline
  T/C: 169 % of control and 177 % of control

## CC1CC2OC2/C=C\C=C\C(=O)Cc2c(Cl)c(O)cc(O)c2C(=O)O1 (stereo unspecified)
dose: 12.5 mg/kg/injection, schedule: Q04DX002 (ip), vehicle: Klucel (hydroxypropylcellulose) (HPC)
  T/C: 94 % of control
dose: 25.0 mg/kg/injection, schedule: Q04DX002 (ip), vehicle: Klucel (hydroxypropylcellulose) (HPC)
  T/C: 92 % of control
dose: 50.0 mg/kg/injection, schedule: Q04DX002 (ip), vehicle: Klucel (hydroxypropylcellulose) (HPC)
  T/C: 99 % of control
dose: 100.0 mg/kg/injection, schedule: Q04DX002 (ip), vehicle: Klucel (hydroxypropylcellulose) (HPC)
  T/C: 99 % of control
dose: 200.0 mg/kg/injection, schedule: Q04DX002 (ip), vehicle: Klucel (hydroxypropylcellulose) (HPC)
  T/C: 95 % of control

## C=CC(=O)N1CN(C(=O)C=C)CN(C(=O)C=C)C1
dose: 3.13 mg/kg/injection, schedule: Q04DX003 (ip), vehicle: saline with Tween-80
  T/C: 115 % of control
dose: 6.25 mg/kg/injection, schedule: Q04DX003 (ip), vehicle: saline with Tween-80
  T/C: 110 % of control
dose: 12.5 mg/kg/injection, schedule: Q04DX003 (ip), vehicle: saline with Tween-80
  T/C: 106 % of control
[1]
  T/C: 122 % of control

## O=P1(NCCCl)OCCCN1CCCl (stereo unspecified)
dose: 12.5 mg/kg/injection, schedule: Q04DX003 (ip), vehicle: water
  T/C: 106 % of control
dose: 25.0 mg/kg/injection, schedule: Q04DX003 (ip), vehicle: water
  T/C: 113 % of control
dose: 200.0 mg/kg/injection, schedule: Q04DX003 (ip), vehicle: water
  T/C: 188 % of control

## O=C1NC(O)CCN1C1OC(CO)C(O)C1O (stereo unspecified)
[2]
  T/C: 101 % of control
[3]
  T/C: 101 % of control
dose: 200.0 mg/kg/injection, schedule: Q04DX003 (ip), vehicle: saline
  T/C: 98 % of control
dose: 400.0 mg/kg/injection, schedule: Q04DX003 (ip), vehicle: saline
  T/C: 100 % of control
dose: 800.0 mg/kg/injection, schedule: Q04DX003 (ip), vehicle: saline
  T/C: 108 % of control

## CO[C@@]12[C@H](COC(N)=O)C3=C(C(=O)C(C)=C(N)C3=O)N1C[C@@H]1N[C@@H]12
dose: 1.0 mg/kg/injection, schedule: Q01DX004 (ip), vehicle: saline
  T/C: 122 % of control
dose: 1.0 mg/kg/injection, schedule: Q03DX002 (ip), vehicle: saline
  T/C: 120 % of control
dose: 2.0 mg/kg/injection, schedule: Q01DX005 (ip), vehicle: saline
  T/C: 96 % of control
dose: 2.0 mg/kg/injection, schedule: Q03DX002 (ip), vehicle: saline
  T/C: 113 % of control
dose: 2.0 mg/kg/injection, schedule: Q07DX003 (ip), vehicle: Klucel (hydroxypropylcellulose) (HPC)
  T/C: 195 % of control
dose: 2.0 mg/kg/injection, schedule: Q07DX003 (ip), vehicle: saline
  T/C: 152 % of control
dose: 2.9 mg/kg/injection, schedule: Q07DX003 (ip), vehicle: Klucel (hydroxypropylcellulose) (HPC)
  T/C: 183 % of control
dose: 2.9 mg/kg/injection, schedule: Q07DX003 (ip), vehicle: saline
  T/C: 169 % of control
dose: 3.0 mg/kg/injection, schedule: Q01DX004 (ip), vehicle: saline
  T/C: 114 % of control
dose: 3.0 mg/kg/injection, schedule: Q01DX005 (ip), vehicle: saline
  T/C: 110 % of control
dose: 3.0 mg/kg/injection, schedule: Q03DX002 (ip), vehicle: saline
  T/C: 117 % of control
dose: 4.2 mg/kg/injection, schedule: Q07DX003 (ip), vehicle: Klucel (hydroxypropylcellulose) (HPC)
  T/C: 223 % of control
dose: 4.2 mg/kg/injection, schedule: Q07DX003 (ip), vehicle: saline
  T/C: 190 % of control
dose: 4.5 mg/kg/injection, schedule: Q01DX005 (ip), vehicle: saline
  T/C: 114 % of control
dose: 4.5 mg/kg/injection, schedule: Q03DX002 (ip), vehicle: saline
  T/C: 110 % of control
dose: 6.0 mg/kg/injection, schedule: Q01DX005 (ip), vehicle: saline
  T/C: 121 % of control
dose: 6.0 mg/kg/injection, schedule: Q07DX003 (ip), vehicle: Klucel (hydroxypropylcellulose) (HPC)
  T/C: 87 % of control
dose: 6.0 mg/kg/injection, schedule: Q07DX003 (ip), vehicle: saline
  T/C: 231 % of control

## Oc1ccc(C2CCCCC2)cc1CN1CCCCC1
dose: 3.12 mg/kg/injection, schedule: Q04DX003 (ip), vehicle: saline
  T/C: 112 % of control
dose: 6.25 mg/kg/injection, schedule: Q04DX003 (ip), vehicle: saline
  T/C: 114 % of control
[1]
  T/C: 112 % of control
dose: 25.0 mg/kg/injection, schedule: Q04DX003 (ip), vehicle: saline
  T/C: 104 % of control
[2]
  T/C: 115 % of control
[3]
  T/C: 120 % of control

## CCC1(O)CC2CN(CCc3c([nH]c4ccccc34)C(C(=O)OC)(c3cc4c(cc3OC)N(C)C3C(O)(C(=O)NCCSSCCNC(=O)C5(O)C(O)C6(CC)C=CCN7CCC8(c9cc(C%10(C(=O)OC)CC%11CN(CCc%12c%10[nH]c%10ccccc%12%10)CC(O)(CC)C%11)c(OC)cc9N(C)C58)C76)C(O)C5(CC)C=CCN6CCC43C65)C2)C1 (stereo unspecified)
dose: 540.0 micrograms/kg/injection, schedule: Q04DX003 (ip), vehicle: saline
  T/C: 114 % of control
dose: 900.0 micrograms/kg/injection, schedule: Q04DX003 (ip), vehicle: saline
  T/C: 114 % of control
dose: 1500.0 micrograms/kg/injection, schedule: Q04DX003 (ip), vehicle: saline
  T/C: 96 % of control

## COc1cc2c3cc1Oc1c(O)c(OC)cc4c1[C@H](Cc1ccc(cc1)Oc1cc(ccc1O)C[C@H]3N(C)CC2)N(C)CC4
dose: 5.0 mg/kg/injection, schedule: Q04DX003 (ip), vehicle: distilled water + Tween-80
  T/C: 95 % of control
dose: 10.0 mg/kg/injection, schedule: Q04DX003 (ip), vehicle: distilled water + Tween-80
  T/C: 103 % of control
dose: 20.0 mg/kg/injection, schedule: Q04DX003 (ip), vehicle: distilled water + Tween-80
  T/C: 97 % of control
dose: 40.0 mg/kg/injection, schedule: Q04DX003 (ip), vehicle: distilled water + Tween-80
  T/C: 115 % of control
dose: 40.0 mg/kg/injection, schedule: Q04DX003 (ip), vehicle: saline with Tween-80
  T/C: 95 % of control
